ChEMBL document CHEMBL3885881, “DrugMatrix”

Organism: Rattus norvegicus
Test: DrugMatrix - Regimen: Daily Repeat
Format: toxicity, organism-based, Sprague-Dawley
Set-up: regimen Daily Repeat, gender Male, age 6-8 weeks
Conditions: in vivo, po, route oral GAVAGE, […]; for ABSOLUTE BASOPHIL / ABSOLUTE EOSINOPHIL / ABSOLUTE LYMPHOCYTE / ABSOLUTE MONOCYTE / ABSOLUTE SEGMENTED NEUTROPHIL / BASOPHIL / EOSINOPHIL / ERYTHROCYTE COUNT / HEMATOCRIT / HEMOGLOBIN / LEUKOCYTE COUNT / LYMPHOCYTE / MEAN CORPUSCULAR HEMOGLOBIN / MEAN CORPUSCULAR HEMOGLOBIN CONCENTRATION / MEAN CORPUSCULAR VOLUME / MONOCYTE / NEUTROPHIL / NUCLEATED RED BLOOD CELLS / PLATELET COUNT: tissue Blood; for ALANINE AMINOTRANSFERASE / ALBUMIN / ALKALINE PHOSPHATASE / ASPARTATE AMINOTRANSFERASE / BLOOD UREA NITROGEN / CARBON DIOXIDE / CHLORIDE / CHOLESTEROL / CREATINE PHOSPHOKINASE / CREATININE / GLUCOSE / LACTATE DEHYDROGENASE / LIPASE / PHOSPHORUS / POTASSIUM / SODIUM / TOTAL BILIRUBIN / TOTAL PROTEIN / URIC ACID: tissue Plasma
[1] = 0 mg/kg, 72 h, dose level Control, time 3 day
[2] = 0 mg/kg, 120 h, dose level Control, time 5 day
[3] = 4 mg/kg, 72 h, dose level Low, time 3 day

CSc1ccc2c(c1)N(CCC1CCCCN1C)c1ccccc1S2 (centres undefined) [THIORIDAZINE] was tested, and the “ABSOLUTE BASOPHIL” value [1] was 0 CELLS/uL, the “ABSOLUTE EOSINOPHIL” value [1] was 179.67 CELLS/uL and the “ABSOLUTE LYMPHOCYTE” value [1] was 11440.17 CELLS/uL. For the same compound, the “ABSOLUTE MONOCYTE” value [1] was 128.83 CELLS/uL, the “ABSOLUTE SEGMENTED NEUTROPHIL” value [1] was 1051.33 CELLS/uL and the BASOPHIL [1] was 0%. For the same compound, the EOSINOPHIL [1] was 1.33%, the “ERYTHROCYTE COUNT” value [1] was 5.53 x10E6/uL and the HEMATOCRIT [1] was 34.75%. The HEMOGLOBIN [1] was 12.88 G/DL, the “LEUKOCYTE COUNT” value [1] was 12.8 x10E3/uL and the LYMPHOCYTE [1] was 89.5%. The “MEAN CORPUSCULAR HEMOGLOBIN” value [1] was 23.38 pg, the “MEAN CORPUSCULAR HEMOGLOBIN CONCENTRATION” value [1] was 37.12 G/DL and the “MEAN CORPUSCULAR VOLUME” value [1] was 62.88 fL. The MONOCYTE [1] was 1%, the NEUTROPHIL [1] was 8.17% and the “NUCLEATED RED BLOOD CELLS” value [1] was 0 /100WBC. The “PLATELET COUNT” value [1] was 1292 x10E3/uL, the “ALANINE AMINOTRANSFERASE” value [1] was 58.67 u/L and the ALBUMIN [1] was 4.25 G/DL. For the same compound, the “ALKALINE PHOSPHATASE” value [1] was 437.83 u/L, the “ASPARTATE AMINOTRANSFERASE” value [1] was 85.17 u/L and the “BLOOD UREA NITROGEN” value [1] was 14.17 mg/dL. For the same compound, the “CARBON DIOXIDE” value [1] was 28.67 mmol/L, the CHLORIDE [1] was 102.17 MEQ/L and the CHOLESTEROL [1] was 68.5 mg/dL. For the same compound, the “CREATINE PHOSPHOKINASE” value [1] was 271.83 u/L, the CREATININE [1] was 0.2 mg/dL and the GLUCOSE [1] was 156.67 mg/dL. The “LACTATE DEHYDROGENASE” value [1] was 112.33 u/L, the LIPASE [1] was 9.33 u/L and the PHOSPHORUS [1] was 11.1 mg/dL. For the same compound, the POTASSIUM [1] was 6.46 MEQ/L, the SODIUM [1] was 144.37 MEQ/L and the “TOTAL BILIRUBIN” value [1] was 0.23 mg/dL. For the same compound, the “TOTAL PROTEIN” value [1] was 5.8 G/DL, the “URIC ACID” value [1] was 1.55 mg/dL and the “ABSOLUTE BASOPHIL” value [2] was 0 CELLS/uL. For the same compound, the “ABSOLUTE EOSINOPHIL” value [2] was 87 CELLS/uL, the “ABSOLUTE LYMPHOCYTE” value [2] was 14743.5 CELLS/uL and the “ABSOLUTE MONOCYTE” value [2] was 187 CELLS/uL. The “ABSOLUTE SEGMENTED NEUTROPHIL” value [2] was 1499.17 CELLS/uL, the BASOPHIL [2] was 0% and the EOSINOPHIL [2] was 0.5%. For the same compound, the “ERYTHROCYTE COUNT” value [2] was 5.84 x10E6/uL, the HEMATOCRIT [2] was 36.3% and the HEMOGLOBIN [2] was 13.55 G/DL. For the same compound, the “LEUKOCYTE COUNT” value [2] was 16.52 x10E3/uL, the LYMPHOCYTE [2] was 89.5% and the “MEAN CORPUSCULAR HEMOGLOBIN” value [2] was 23.25 pg. For the same compound, the “MEAN CORPUSCULAR HEMOGLOBIN CONCENTRATION” value [2] was 37.35 G/DL, the “MEAN CORPUSCULAR VOLUME” value [2] was 62.27 fL and the MONOCYTE [2] was 1.17%. For the same compound, the NEUTROPHIL [2] was 8.83%, the “NUCLEATED RED BLOOD CELLS” value [2] was 0.17 /100WBC and the “PLATELET COUNT” value [2] was 1233.5 x10E3/uL. For the same compound, the “ALANINE AMINOTRANSFERASE” value [2] was 62.5 u/L, the ALBUMIN [2] was 4.17 G/DL and the “ALKALINE PHOSPHATASE” value [2] was 464.33 u/L. The “ASPARTATE AMINOTRANSFERASE” value [2] was 99.67 u/L, the “BLOOD UREA NITROGEN” value [2] was 14.33 mg/dL and the “CARBON DIOXIDE” value [2] was 26 mmol/L. For the same compound, the CHLORIDE [2] was 102.33 MEQ/L, the CHOLESTEROL [2] was 60.67 mg/dL and the “CREATINE PHOSPHOKINASE” value [2] was 402.5 u/L. For the same compound, the CREATININE [2] was 0.22 mg/dL, the GLUCOSE [2] was 173.5 mg/dL and the “LACTATE DEHYDROGENASE” value [2] was 518.17 u/L. The LIPASE [2] was 10.83 u/L, the PHOSPHORUS [2] was 11.4 mg/dL and the POTASSIUM [2] was 6.13 MEQ/L. The SODIUM [2] was 142.63 MEQ/L, the “TOTAL BILIRUBIN” value [2] was 0.17 mg/dL and the “TOTAL PROTEIN” value [2] was 6.1 G/DL. The “URIC ACID” value [2] was 1.97 mg/dL, the “ABSOLUTE BASOPHIL” value [3] was 0 CELLS/uL and the “ABSOLUTE EOSINOPHIL” value [3] was 0 CELLS/uL. The “ABSOLUTE LYMPHOCYTE” value [3] was 12903.67 CELLS/uL, the “ABSOLUTE MONOCYTE” value [3] was 46 CELLS/uL and the “ABSOLUTE SEGMENTED NEUTROPHIL” value [3] was 817 CELLS/uL. The BASOPHIL [3] was 0%, the EOSINOPHIL [3] was 0% and the “ERYTHROCYTE COUNT” value [3] was 5.52 x10E6/uL. The HEMATOCRIT [3] was 35.4%, the HEMOGLOBIN [3] was 13.13 G/DL and the “LEUKOCYTE COUNT” value [3] was 13.77 x10E3/uL. The LYMPHOCYTE [3] was 93.67%, the “MEAN CORPUSCULAR HEMOGLOBIN” value [3] was 23.8 pg and the “MEAN CORPUSCULAR HEMOGLOBIN CONCENTRATION” value [3] was 37.1 G/DL. For the same compound, the “MEAN CORPUSCULAR VOLUME” value [3] was 64.17 fL, the MONOCYTE [3] was 0.33% and the NEUTROPHIL [3] was 6%. For the same compound, the “NUCLEATED RED BLOOD CELLS” value [3] was 0 /100WBC, the “PLATELET COUNT” value [3] was 1132.33 x10E3/uL and the “ALANINE AMINOTRANSFERASE” value [3] was 50 u/L. For the same compound, the ALBUMIN [3] was 4.1 G/DL, the “ALKALINE PHOSPHATASE” value [3] was 495.33 u/L and the “ASPARTATE AMINOTRANSFERASE” value [3] was 79.67 u/L. The “BLOOD UREA NITROGEN” value [3] was 12 mg/dL, the “CARBON DIOXIDE” value [3] was 28.67 mmol/L and the CHLORIDE [3] was 101.67 MEQ/L. The CHOLESTEROL [3] was 70.67 mg/dL, the “CREATINE PHOSPHOKINASE” value [3] was 382.67 u/L and the CREATININE [3] was 0.17 mg/dL. For the same compound, the GLUCOSE [3] was 176.33 mg/dL, the “LACTATE DEHYDROGENASE” value [3] was 65.33 u/L and the LIPASE [3] was 9.67 u/L. For the same compound, the PHOSPHORUS [3] was 11.5 mg/dL, the POTASSIUM [3] was 6.31 MEQ/L and the SODIUM [3] was 142.93 MEQ/L. The “TOTAL BILIRUBIN” value [3] was 0.2 mg/dL, the “TOTAL PROTEIN” value [3] was 5.57 G/DL and the “URIC ACID” value [3] was 1.93 mg/dL.
